This is an account of results in publication PMC6225228, “Design, Synthesis and Evaluation of N-pyrazinylbenzamides as Potential Antimycobacterial Agents” (Molecules : A Journal of Synthetic Chemistry and Natural …, 2018).

SMILES strings stand for the structures. In brackets after ≈: the same amount, converted by molar mass. Where two headings read alike, the source gives them in different places. Marks after values point to notes of the source that are not given here.

A word on the melting point: it is the temperature of the solid-liquid transition.

Data set [1] relates to M. kansasii CNCTC My 235/80 (ATCC 12478). The experiment in a line: Antimycobacterial microdilution MABA, M. kansasii. The following applies: for MIC: Mycobacterium kansasii. The data set is classed as cell-based, Mycobacterium kansasii. (In broth dilution the organism is exposed to a series of concentrations in liquid medium.)
The test system of data set [2] is Mycobacterium smegmatis CCM 4622 (ATCC 607). Briefly: Antimycobacterial microdilution, M. smegmatis. The data set is classed as cell-based. The conditions noted are these: Mycolicibacterium smegmatis, read-out: M. smeg. ATCC 607 MIC.
Data set [3] concerns Mycobacterium tuberculosis H37Rv CNCTC My 331/88 (ATCC 27294). Briefly: Antimycobacterial microdilution MABA, M. tuberculosis. The following applies: for MIC: Mycobacterium tuberculosis. The format is cell-based.
The subject of data set [4] is M. avium ssp. avium CNCTC My 80/72 (ATCC 15769). Briefly: Antimycobacterial microdilution MABA, M. avium. The format is cell-based, Mycobacterium avium. The following applies: for MIC: Mycobacterium avium.
The test system of data set [5] is Pseudomonas aeruginosa CCM 1961. The experiment in a line: Antibacterial microdilution broth, PA. The data set is classed as cell-based. The following applies: Pseudomonas aeruginosa, read-out: MIC PA.
Data set [6] concerns Trichophyton interdigitale 445. Briefly: Antifungal microdilution broth, TI. The data set is classed as cell-based. The following applies: read-out: MIC TI.
Data set [7] concerns Staphylococcus aureus H 5996/08 methicillin resistant. Briefly: microbe, parasite or virus in culture. The data set is classed as cell-based. The following applies: for MIC: Staphylococcus aureus, MRSA, read-out: MIC MRSA.
Data set [8] has as its system Lichtheimia corymbifera 272. The experiment in a line: Antifungal microdilution broth, LC. The data set is classed as cell-based. The following applies: read-out: MIC LC.
Data set [9] concerns Staphylococcus epidermidis H 6966/08. The experiment in a line: Antibacterial microdilution broth, SE. The following applies: read-out: MIC SE. The format is cell-based.
Another data set relates to Trichosporon asahii 1188. The experiment in a line: Antifungal microdilution broth, TA. The data set is classed as cell-based. The following applies: read-out: MIC TA.
A further data set deals with Candida tropicalis 156. The experiment in a line: Antifungal microdilution broth, CT. The data set is classed as cell-based. The following applies: read-out: MIC CT.
Data set [10] deals with Escherichia coli CCM 4517. Briefly: Antibacterial microdilution broth, EC. The data set is classed as cell-based. The following applies: Escherichia coli, read-out: MIC EC.
For data set [11], the system named is Enterococcus sp. J 14365/08. The experiment in a line: Antibacterial microdilution broth, EF. The following applies: Enterococcus, read-out: MIC EF. The data set is classed as cell-based.
For another data set, the system named is Candida krusei E28. The experiment in a line: Antifungal microdilution broth, CK. The format is cell-based. The conditions noted are these: Pichia kudriavzevii, read-out: MIC CK.
Data set [12] relates to Candida albicans ATCC 44859. The experiment in a line: Antifungal microdilution broth, CA. The conditions noted are these: Candida albicans, read-out: MIC CA. The data set is classed as cell-based.
For data set [13], the system named is Staphylococcus aureus CCM 4516/08. Briefly: Antibacterial microdilution broth, SA. The format is cell-based.
The subject of another data set is Candida glabrata 20/I. Briefly: Antifungal microdilution broth, CG. The format is cell-based. The conditions noted are these: Nakaseomyces glabratus, 20/I, read-out: MIC CG.
In data set [14] the test system is Aspergillus fumigatus 231. The experiment in a line: Antifungal microdilution broth, AF. The data set is classed as cell-based. The conditions noted are these: read-out: MIC AF.
Setting [15] is: ATCC12478, Middlebrook 7H9 with OADC, pH 6.6, MABA, read-out: M. kans. ATCC 12478 MIC.
Where [16] appears, read: Middlebrook 7H9 with OADC, resazurin.
[17] abbreviates: Middlebrook 7H9 with OADC growth supplement, pH = 6.6, MABA.
[18] abbreviates: Middlebrook 7H9 with OADC growth supplement, pH = 6.6, MABA, read-out: Mtb H37Rv ATCC 27294 MIC.
[19] abbreviates: ATCC15769, Middlebrook 7H9 with OADC, pH 6.6, MABA, read-out: M. avium ATCC 15769 MIC.
The mark [20] stands for this setting: Middlebrook 7H9 with OADC, pH 6.6, MABA.

Regarding `O=C(Nc1cncc(Cl)n1)c1ccccc1` [Compound 3a], the melting point lay in the range of 152.8 to 153.6 °C. Besides, in data set [1] (setting [15]), the MIC was over 100 µg/mL. For the same compound, the MIC in data set [2] (setting [16]) was at least 500 µg/mL. Moreover, the “Mtb H37Rv ATCC 27294 MIC” value in data set [3] (setting [17]) is reported as over 100 µg/mL. For the same compound, in [3] (setting [18]), the MIC is over 100 µg/mL. Also, the MIC in data set [4] (setting [19]) was over 100 µg/mL.
In turn, `COc1cccc(C(=O)Nc2cncc(Cl)n2)c1` [Compound 3f] showed a melting point of 131.6 to 132.7 °C. Also, in [1] (setting [20]), the “M. kans. ATCC 12478 MIC” value is on record as 100 ^c µg/mL. Also, the MIC in [1] (setting [15]) amounted to 100 µg/mL (≈ 379 µM). Besides, in [2] (setting [16]), the MIC was at least 500 µg/mL. The “Mtb H37Rv ATCC 27294 MIC” value in data set [3] (setting [17]) was 50 µg/mL. For the same compound, the MIC in data set [3] (setting [18]) was 50 µg/mL (≈ 190 µM). The “M. avium ATCC 15769 MIC” value in data set [4] (setting [20]) is listed as 100 ^c µg/mL. In addition, the MIC in data set [4] (setting [19]) was found to be 100 µg/mL (≈ 379 µM).
On to `O=C(Nc1cnccn1)c1cccc(C(F)(F)F)c1` [Compound 1n], for which the MIC in data set [5] (CCM1961, 72 h) is over 125 µM; in [5] (CCM1961, 120 h), over 125 µM; in [6] (Trichophyton interdigitale, 445, 72 h), over 125 µM; in data set [6] (Trichophyton interdigitale, 445, 120 h), over 125 µM; in data set [1] (ATCC12478, pH 6.6, read-out: M. kans. ATCC 12478 MIC, Middlebrook 7H9 with OADC, pH 6.6, MABA) it was over 100 µg/mL; in data set [7] (24 h), over 125 µM. Moreover, the MIC was over 125 µM in [7] (48 h); at least 500 µg/mL in data set [2]; over 125 µM in data set [8] (Lichtheimia corymbifera, 272, 24 h); over 125 µM in [8] (Lichtheimia corymbifera, 272, 48 h); 62.50 µM (≈ 16.7 µg/mL) in data set [9] (24 h); 62.50 µM (≈ 16.7 µg/mL) in data set [9] (48 h). In addition, the MIC is 62.5 µM (≈ 16.7 µg/mL) in data set [9] (Staphylococcus epidermidis, H6966/08, 24 h); 62.5 µM (≈ 16.7 µg/mL) in data set [9] (Staphylococcus epidermidis, H6966/08, 48 h); over 125 µM in the data set with Trichosporon asahii 1188 (Trichosporon asahii, 1188, 24 h); over 125 µM in the data set on Trichosporon asahii 1188 (Trichosporon asahii, 1188, 48 h); over 125 µM in the data set with Candida tropicalis 156 (Candida tropicalis, 156, 24 h); over 125 µM with Candida tropicalis 156 (Candida tropicalis, 156, 48 h). Also, the MIC in data set [10] (CCM4517, 24 h) is over 125 µM; in data set [10] (CCM4517, 48 h), over 125 µM; in [11] (SP.J14365/08, 24 h), over 125 µM; in [11] (SP.J14365/08, 48 h), over 125 µM; with Candida krusei E28 (E28, 24 h) it was over 125 µM; in the data set on Candida krusei E28 (E28, 48 h), over 125 µM. Also, the MIC is over 100 µg/mL in data set [3] (read-out: Mtb H37Rv ATCC 27294 MIC, Middlebrook 7H9 with OADC growth supplement, pH = 6.6, MABA); over 100 µg/mL in [4] (ATCC15769, pH 6.6, read-out: M. avium ATCC 15769 MIC); over 125 µM in [12] (ATCC44859, 24 h); over 125 µM in [12] (ATCC44859, 48 h); over 125 µM in [13] (24 h, read-out: MIC SA); over 125 µM in data set [13] (48 h, read-out: MIC SA). Also, the MIC was over 125 µM in data set [13] (Staphylococcus aureus, CCM4516, 24 h, read-out: MIC SA, 24 h); over 125 µM in [13] (Staphylococcus aureus, CCM4516, 48 h, read-out: MIC SA, 48 h); over 125 µM in the data set on Candida glabrata 20/I (24 h); over 125 µM with Candida glabrata 20/I (48 h); over 125 µM in [14] (Aspergillus fumigatus, 231, 24 h); over 125 µM in data set [14] (Aspergillus fumigatus, 231, 48 h). In addition, the “MIC MRSA” value in data set [7] (24 h) and in data set [7] (48 h) was over 125 µM each time. For the same compound, the “Mtb H37Rv ATCC 27294 MIC” value in data set [3] (setting [17]) is over 100 µg/mL.
